Numbers after ± are expanded uncertainties.
Assay: mn = molality of the nth substance listed, in mol/kg
Settings: 101 kPa, Liquid; for speed of sound: Sing-around technique in a fixed-path interferometer; for mass density: Vibrating tube method

A speed of sound (288.15 K, m1 = 0.0354) of 1471.7 ± 1.4 m/s, a speed of sound (288.15 K, m1 = 0.0466) of 1480.1 ± 1.4 m/s and a speed of sound (288.15 K, m1 = 0.0575) of 1484.9 ± 1.4 m/s were found for `CCCCn1cc[n+](C)c1C.[Cl-]` [1-butyl-2,3-dimethylimidazolium chloride] + O in this work. The speed of sound (288.15 K, m1 = 0.0702) was 1489.8 ± 1.4 m/s, the speed of sound (288.15 K, m1 = 0.0932) was 1498 ± 1.4 m/s and the speed of sound (288.15 K, m1 = 0.1164) was 1502.9 ± 1.4 m/s. It also gave a speed of sound (288.15 K, m1 = 0.1401) of 1505.3 ± 1.4 m/s, a speed of sound (288.15 K, m1 = 0.1635) of 1506.4 ± 1.4 m/s and a speed of sound (288.15 K, m1 = 0.1862) of 1507.5 ± 1.4 m/s. For the same compound, the speed of sound (288.15 K, m1 = 0.2082) was 1508.2 ± 1.4 m/s, the speed of sound (288.15 K, m1 = 0.2329) was 1509.1 ± 1.4 m/s and the mass density (288.15 K, m1 = 0.0354) was 999.41 ± 0.29 kg/m3. The mass density (288.15 K, m1 = 0.0466) was 999.559 ± 0.29 kg/m3, the mass density (288.15 K, m1 = 0.0575) was 999.712 ± 0.3 kg/m3 and the mass density (288.15 K, m1 = 0.0702) was 999.936 ± 0.3 kg/m3. The mass density (288.15 K, m1 = 0.0932) was 1000.31 ± 0.3 kg/m3, the mass density (288.15 K, m1 = 0.1164) was 1000.68 ± 0.3 kg/m3 and the mass density (288.15 K, m1 = 0.1401) was 1000.99 ± 0.3 kg/m3. It also gave a mass density (288.15 K, m1 = 0.1635) of 1001.1 ± 0.3 kg/m3, a mass density (288.15 K, m1 = 0.1862) of 1001.01 ± 0.3 kg/m3 and a mass density (288.15 K, m1 = 0.2082) of 1000.78 ± 0.3 kg/m3. The mass density (288.15 K, m1 = 0.2329) was 1000.25 ± 0.3 kg/m3, the speed of sound (298.15 K, m1 = 0.0354) was 1502.4 ± 1.4 m/s and the speed of sound (298.15 K, m1 = 0.0466) was 1508.2 ± 1.4 m/s. The speed of sound (298.15 K, m1 = 0.0575) was 1512.1 ± 1.4 m/s, the speed of sound (298.15 K, m1 = 0.0702) was 1515.5 ± 1.4 m/s and the speed of sound (298.15 K, m1 = 0.0932) was 1520.7 ± 1.4 m/s. For the same compound, the speed of sound (298.15 K, m1 = 0.1164) was 1525.7 ± 1.4 m/s, the speed of sound (298.15 K, m1 = 0.1401) was 1527.9 ± 1.4 m/s and the speed of sound (298.15 K, m1 = 0.1635) was 1529.3 ± 1.4 m/s. The speed of sound (298.15 K, m1 = 0.1862) was 1530.5 ± 1.4 m/s, the speed of sound (298.15 K, m1 = 0.2082) was 1531.5 ± 1.4 m/s and the speed of sound (298.15 K, m1 = 0.2329) was 1532.1 ± 1.4 m/s. It also gave a mass density (298.15 K, m1 = 0.0354) of 997.296 ± 0.3 kg/m3, a mass density (298.15 K, m1 = 0.0466) of 997.434 ± 0.29 kg/m3 and a mass density (298.15 K, m1 = 0.0575) of 997.614 ± 0.3 kg/m3. It also gave a mass density (298.15 K, m1 = 0.0702) of 997.784 ± 0.3 kg/m3, a mass density (298.15 K, m1 = 0.0932) of 998.103 ± 0.29 kg/m3 and a mass density (298.15 K, m1 = 0.1164) of 998.419 ± 0.29 kg/m3. It also gave a mass density (298.15 K, m1 = 0.1401) of 998.698 ± 0.29 kg/m3, a mass density (298.15 K, m1 = 0.1635) of 998.836 ± 0.29 kg/m3 and a mass density (298.15 K, m1 = 0.1862) of 998.743 ± 0.29 kg/m3. The mass density (298.15 K, m1 = 0.2082) was 998.556 ± 0.29 kg/m3, the mass density (298.15 K, m1 = 0.2329) was 998.134 ± 0.3 kg/m3 and the speed of sound (308.15 K, m1 = 0.0354) was 1525.2 ± 1.4 m/s. For the same compound, the speed of sound (308.15 K, m1 = 0.0466) was 1530.4 ± 1.4 m/s, the speed of sound (308.15 K, m1 = 0.0575) was 1533 ± 1.4 m/s and the speed of sound (308.15 K, m1 = 0.0702) was 1535.5 ± 1.4 m/s. The speed of sound (308.15 K, m1 = 0.0932) was 1539.2 ± 1.4 m/s, the speed of sound (308.15 K, m1 = 0.1164) was 1543.5 ± 1.4 m/s and the speed of sound (308.15 K, m1 = 0.1401) was 1546.4 ± 1.4 m/s. The speed of sound (308.15 K, m1 = 0.1635) was 1547.4 ± 1.4 m/s, the speed of sound (308.15 K, m1 = 0.1862) was 1549.1 ± 1.4 m/s and the speed of sound (308.15 K, m1 = 0.2082) was 1550 ± 1.4 m/s. For the same compound, the speed of sound (308.15 K, m1 = 0.2329) was 1550.6 ± 1.4 m/s, the mass density (308.15 K, m1 = 0.0354) was 994.233 ± 0.29 kg/m3 and the mass density (308.15 K, m1 = 0.0466) was 994.36 ± 0.29 kg/m3. The mass density (308.15 K, m1 = 0.0575) was 994.516 ± 0.29 kg/m3, the mass density (308.15 K, m1 = 0.0702) was 994.679 ± 0.29 kg/m3 and the mass density (308.15 K, m1 = 0.0932) was 994.956 ± 0.29 kg/m3. For the same compound, the mass density (308.15 K, m1 = 0.1164) was 995.243 ± 0.29 kg/m3, the mass density (308.15 K, m1 = 0.1401) was 995.547 ± 0.29 kg/m3 and the mass density (308.15 K, m1 = 0.1635) was 995.675 ± 0.29 kg/m3. It also gave a mass density (308.15 K, m1 = 0.1862) of 995.587 ± 0.29 kg/m3, a mass density (308.15 K, m1 = 0.2082) of 995.17 ± 0.3 kg/m3 and a mass density (308.15 K, m1 = 0.2329) of 994.487 ± 0.3 kg/m3.

Source: the NIST ThermoML archive (doi:10.1016/j.tca.2013.09.034)
